# Experimental data: the supplement of paper PMC10307832
# Key:
# Test in all cases: relative viability (nuclei count vs DMSO), 5 days (fraction); higher = more cells survive
# AT-7519 + Phenformin = compound: O=C(NC1CCNCC1)c1n[nH]cc1NC(=O)c1c(Cl)cccc1Cl [AT-7519] + N=C(N)NC(=N)NCCc1ccccc1 [Phenformin] (partner 250 µM)
# Method in brief: (§1)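 Relative viability divides the nuclei count in treated wells by that in vehicle wells. Lung cancer cell lines were seeded in 1536-well plates, dosed by pin tool the next day, and fixed and stained after 5 days in one step with final 0.05% Triton X-100, 1% formaldehyde and 1 ug/ml Hoechst. Dosing was a single drug or a fixed anchor-drug dose plus five library-drug doses (not always all listed) in √10 steps, and values are medians of duplicate plates imaged at 4×.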
# AT-7519 + Palbociclib = compound: O=C(NC1CCNCC1)c1n[nH]cc1NC(=O)c1c(Cl)cccc1Cl [AT-7519] + CC(=O)c1c(C)c2cnc(Nc3ccc(N4CCNCC4)cn3)nc2n(C2CCCC2)c1=O [Palbociclib] (partner 0.5 µM)
# Method in brief: as §1
# AT-7519 + Luminespib = compound: O=C(NC1CCNCC1)c1n[nH]cc1NC(=O)c1c(Cl)cccc1Cl [AT-7519] + CCNC(=O)c1noc(-c2cc(C(C)C)c(O)cc2O)c1-c1ccc(CN2CCOCC2)cc1 [Luminespib] (partner 0.01 µM)
# Method in brief: as §1
# [1] = compound: C1=CC2=C(C=C(C(=C2N=C1)O)N=NC3=CC4=C(C=C3)C=C(C=C4)S(=O)(=O)O)S(=O)(=O)O + CS(=O)(=O)CCNCc1ccc(-c2ccc3ncnc(Nc4ccc(OCc5cccc(F)c5)c(Cl)c4)c3c2)o1 [Lapatinib] (partner 2 µM)
# Method in brief: as §1
Cell Line,relative viability (AT-7519 + Phenformin; first compound 0.01 µM),relative viability (AT-7519 + Phenformin; first compound 0.03162 µM),relative viability (AT-7519 + Phenformin; first compound 0.3162 µM),relative viability (AT-7519 + Phenformin; first compound 1 µM),relative viability (AT-7519 + Palbociclib; first compound 0.01 µM),relative viability (AT-7519 + Palbociclib; first compound 0.03162 µM),relative viability (AT-7519 + Palbociclib; first compound 0.3162 µM),relative viability (AT-7519 + Palbociclib; first compound 1 µM),relative viability (AT-7519 + Luminespib; first compound 0.01 µM),relative viability (AT-7519 + Luminespib; first compound 0.03162 µM),relative viability (AT-7519 + Luminespib; first compound 0.3162 µM),relative viability (AT-7519 + Luminespib; first compound 1 µM),relative viability ([1]; first compound 0.08 µM),relative viability ([1]; first compound 0.253 µM),relative viability ([1]; first compound 0.8 µM),relative viability ([1]; first compound 2.53 µM),relative viability ([1]; first compound 8 µM)
NCI-H727,0.527,0.584,0.509,0.417,0.621,0.698,0.658,0.427,0.343,0.339,0.279,0.24,1.09,0.873,0.768,0.978,0.701
NCI-H2087,0.472,0.442,0.479,0.172,0.226,0.224,0.186,0.116,0.178,0.16,0.141,0.116,1.16,0.981,1.02,1.03,1.02
BEN,0.522,0.234,0.269,0.257,0.5,0.515,0.455,0.461,0.303,0.307,0.231,0.361,0.956,0.623,0.669,0.766,0.654
LCLC-103H,0.32,0.296,0.313,0.33,0.513,0.42,0.432,0.418,1.06,0.953,0.955,0.867,,,,,
ChaGo-K-1,0.459,0.392,0.404,0.451,0.952,0.938,0.922,0.869,0.607,0.544,0.669,0.522,,,,,
SW 900,0.697,0.645,0.604,0.196,0.552,0.595,0.512,0.463,0.171,0.183,0.173,0.179,,,,,
NCI-H596,0.732,0.653,0.642,0.714,,,,,0.988,1,0.846,0.827,1.11,1.02,0.977,1.01,1.01
NCI-H1563,0.66,0.625,0.645,0.651,,,,,0.526,0.542,0.599,0.538,0.957,1.02,0.916,0.976,1.13
A549,0.131,0.153,0.158,0.0741,,,,,,,,,1.08,0.991,0.972,0.947,1.01
NCI-H2342,0.595,0.605,0.509,0.512,0.53,0.491,0.497,0.533,0.646,0.759,0.613,0.587,,,,,
NCI-H1623,0.583,0.567,0.668,0.557,,,,,0.534,0.449,0.397,0.307,,,,,
NCI-H522,,0.681,0.662,0.675,0.969,0.967,0.995,0.788,1.01,1.07,1.31,0.959,,,,,
IA-LM,,,,,,,,,,,,,0.681,0.718,0.707,0.796,0.793
EBC-1,,,,,,,,,,,,,0.202,0.242,0.27,0.2,0.238
